# From patent US12396459B2, “Synergistically effective herbicide composition comprising pyridate and at least one defined 4-HPPD inhibitor” (BELCHIM CROP PROTECTION NV, priority 2018, dated 2025)
# Columns and labels:
# Type in all cases: in vivo
# Brassica napus = assay: Field trial post-emergence in maize: BRSNN; settings: # = 1, g a.c./ha: PYR 300, MES 100, PYR + MES 300 + 90
# Method: (§1) Herbicidal activity of herbicide compositions according to the first aspect of the present invention with regard to different types of unwanted vegetation was determined during trials performed on test fields (field trials). Individual compositions comprising pyridate and individual compositions comprising a defined 4-HPPD inhibitor are compared with a herbicide composition according to the invention comprising both pyridate and a defined 4-HPPD inhibitor. The expected activity of the combination of the active compounds pyridate and a defined 4-HPPD inhibitor is calculated according to above mentioned calculation method by Colby, in order to evaluate a synergistic effect between pyridate and a defined 4-HPPD inhibitor.
# (§2) Herbicidal activity was determined by applying herbicide compositions on emerged unwanted vegetation on fields where maize was cultivated. Pyridate and a defined 4-HPPD inhibitor were applied as a tank mixture by mixing these active compounds prior to use in a spray tank. The corresponding mixture was in the form of a spray liquor. Besides, spray liquors of individual compositions comprising pyridate and of individual compositions comprising a defined 4-HPPD inhibitor were used. Test plants of unwanted vegetation with a growth stage corresponding to BBCH 10-18 (according to the extended BBCH-scale) were sprayed with the active compound preparations such that particular desired amounts of active compounds are applied per unit area. Spray liquor was diluted with water to arrive at an application volume of 50 to 450 L/ha. At a specified number of days after application (DAA), the degree of damage to the unwanted vegetation is rated in % of plants of unwanted vegetation that were killed, which was assessed by visually controlling the plants.
# Cirsium arvense = assay: Field trial post-emergence in maize: CIRAR; settings: # = 1, g a.c./ha: PYR 300, MES 100, PYR + MES 300 + 90
# Method: as §1, §2
# Datura stramonium = assay: Field trial post-emergence in maize: DATST; settings: 7-14 DAA; # = 2; g a.c./ha: PYR 300, MES 100, PYR + MES 300 + 90
# Method: as §1
# Herbicidal activity was determined by applying herbicide compositions on emerged unwanted vegetation on fields where maize was cultivated. Pyridate and a defined 4-HPPD inhibitor were applied as a tank mixture by mixing these active compounds prior to use in a spray tank. The corresponding mixture was in the form of a spray liquor. […] At a specified number of days after application (DAA), the degree of damage to the unwanted vegetation is rated in % of plants of unwanted vegetation that were killed, which was assessed by visually controlling the plants.
# Geranium sp. = assay: Field trial post-emergence in maize: GERSS; settings: # = 1, g a.c./ha: PYR 300, MES 100, PYR + MES 300 + 90
# Method: as §1, §2
# Sonchus oleraceus = assay: Field trial post-emergence in maize: SONOL; settings: # = 1, g a.c./ha: PYR 300, MES 100, PYR + MES 300 + 90
# Method: as §1, §2
# Veronica persica = assay: Field trial post-emergence in maize: VERPE; settings: for herbicidal effect (h.e.): g a.c./ha: PYR 300, MES 100, PYR + MES 300 + 90
# Method: as §1, §2
# Amaranthus retroflexus = assay: Field trial post-emergence in maize: AMARE; settings: 13-14 DAA; # = 1; g a.c./ha: PYR 450, MES 144, PYR + MES 450 + 144
# Method: as §1, §2
# Solanum nigrum = assay: Examples 6-8 herbicidal effect: SOLNI; settings: 7 DAA
# Geranium dissectum = assay: Examples 6-8 herbicidal effect: GERDI; settings: 7 DAA
# Matricaria chamomilla = assay: Examples 6-8 herbicidal effect: MATCH; settings: 7 DAA
# Setaria verticillata [1] = assay: Examples 6-8 herbicidal effect: SETVE; settings: 7 DAA
# Atriplex patula = assay: Field trial post-emergence in maize: ATXPA
# Method: as §1, §2
# (§3) Example 1 concerns a herbicide composition comprising a combination of pyridate and mesotrione, which was applied post-emergence on unwanted vegetation on a field where maize was cultivated, according to the test conditions mentioned above.
# Convolvulus arvensis = assay: Field trial post-emergence in maize: CONAR
# Method: as §1, §2, §3
# Erodium ciconium = assay: Field trial post-emergence in maize: EROCC
# Method: as §1, §2, §3
# Galium aparine = assay: Field trial post-emergence in maize: GALAP
# Method: as §1, §2, §3
# Kickxia elatine = assay: Field trial post-emergence in maize: KICEL
# Method: as §1, §2, §3
# Polygonum aviculare = assay: Field trial post-emergence in maize: POLAV
# Method: as §1, §2, §3
# Setaria verticillata [2] = assay: Field trial post-emergence in maize: SETVE
# Method: as §1, §2, §3
# Viola arvensis = assay: Field trial post-emergence in maize: VIOAR
# Method: as §1, §2, §3
# [3] = g a.c./ha: MES 50, PYR + SMO 300 + 800
# [4] = g a.c./ha: MES 80, PYR + MES 300 + 50
smiles,measurement,setting,value
"CS(=O)(=O)c1ccc(C(=O)C2C(=O)CCCC2=O)c([N+](=O)[O-])c1 [MES, 2-(4-methylsulfonyl-2-nitrobenzoyl) cyclohexane-1,3-dione]",herbicidal effect (h.e.),Brassica napus; 7-14 DAA,86%
same,herbicidal effect (h.e.),Brassica napus; 18-28 DAA,85%
same,herbicidal effect (h.e.),Brassica napus; 31-48 DAA,84%
same,herbicidal effect (h.e.),Cirsium arvense; 7-14 DAA,58%
same,herbicidal effect (h.e.),Cirsium arvense; 31-48 DAA,78%
same,herbicidal effect (h.e.),Datura stramonium,98%
same,herbicidal effect (h.e.),Geranium sp.; 7-14 DAA,44%
same,herbicidal effect (h.e.),Geranium sp.; 18-28 DAA,41%
same,herbicidal effect (h.e.),Geranium sp.; 31-48 DAA,31%
same,herbicidal effect (h.e.),Sonchus oleraceus; 7-14 DAA,90%
same,herbicidal effect (h.e.),Sonchus oleraceus; 18-28 DAA,54%
same,herbicidal effect (h.e.),Sonchus oleraceus; 31-48 DAA,41%
same,herbicidal effect (h.e.),"Veronica persica; 7-14 DAA, # = 4",91%
same,herbicidal effect (h.e.),"Veronica persica; 31-48 DAA, # = 5",93%
same,MES h.e.,Veronica persica; VERPE 14-20 DAA 45 g a.c./ha,20%
same,MES h.e.,Veronica persica; VERPE 14-20 DAA 90 g a.c./ha,75%
same,MES h.e.,Veronica persica; VERPE 14-20 DAA 135 g a.c./ha,70%
same,MES h.e.,Veronica persica; VERPE 24-31 DAA 45 g a.c./ha,10%
same,MES h.e.,Veronica persica; VERPE 24-31 DAA 90 g a.c./ha,55%
same,MES h.e.,Veronica persica; VERPE 24-31 DAA 135 g a.c./ha,60%
same,herbicidal effect (h.e.),Amaranthus retroflexus,45%
same,herbicidal effect (h.e.),Solanum nigrum; [3],67%
same,herbicidal effect (h.e.),Solanum nigrum; [4],54%
same,herbicidal effect (h.e.),Geranium dissectum; [3],15%
same,herbicidal effect (h.e.),Geranium dissectum; [4],15%
same,herbicidal effect (h.e.),Matricaria chamomilla; [3],25%
same,herbicidal effect (h.e.),Matricaria chamomilla; [4],53%
same,herbicidal effect (h.e.),Setaria verticillata [1]; [3],0%
same,herbicidal effect (h.e.),Setaria verticillata [1]; [4],3%
same,MES h.e.,Atriplex patula; ATXPA 24-31 DAA 90 g a.c./ha,97%
same,MES h.e.,Atriplex patula; ATXPA 24-31 DAA 135 g a.c./ha,97%
same,MES h.e.,Convolvulus arvensis; CONAR 14-20 DAA 45 g a.c./ha,40%
same,MES h.e.,Convolvulus arvensis; CONAR 14-20 DAA 90 g a.c./ha,68%
same,MES h.e.,Convolvulus arvensis; CONAR 14-20 DAA 135 g a.c./ha,83%
same,MES h.e.,Convolvulus arvensis; CONAR 24-31 DAA 135 g a.c./ha,80%
same,MES h.e.,Erodium ciconium; EROCC 14-20 DAA 90 g a.c./ha,32%
same,MES h.e.,Erodium ciconium; EROCC 14-20 DAA 135 g a.c./ha,33%
same,MES h.e.,Galium aparine; GALAP 14-20 DAA 45 g a.c./ha,30%
same,MES h.e.,Galium aparine; GALAP 14-20 DAA 90 g a.c./ha,80%
same,MES h.e.,Galium aparine; GALAP 14-20 DAA 135 g a.c./ha,92%
same,MES h.e.,Galium aparine; GALAP 24-31 DAA 45 g a.c./ha,40%
same,MES h.e.,Galium aparine; GALAP 24-31 DAA 90 g a.c./ha,90%
same,MES h.e.,Galium aparine; GALAP 24-31 DAA 135 g a.c./ha,91%
same,MES h.e.,Kickxia elatine; KICEL 14-20 DAA 45 g a.c./ha,0%
same,MES h.e.,Kickxia elatine; KICEL 14-20 DAA 90 g a.c./ha,8%
same,MES h.e.,Kickxia elatine; KICEL 14-20 DAA 135 g a.c./ha,0%
same,MES h.e.,Kickxia elatine; KICEL 24-31 DAA 45 g a.c./ha,0%
same,MES h.e.,Kickxia elatine; KICEL 24-31 DAA 90 g a.c./ha,0%
same,MES h.e.,Kickxia elatine; KICEL 24-31 DAA 135 g a.c./ha,0%
same,MES h.e.,Polygonum aviculare; POLAV 14-20 DAA 45 g a.c./ha,61%
same,MES h.e.,Polygonum aviculare; POLAV 14-20 DAA 90 g a.c./ha,76%
same,MES h.e.,Polygonum aviculare; POLAV 24-31 DAA 90 g a.c./ha,58%
same,MES h.e.,Setaria verticillata [2]; SETVE 14-20 DAA 45 g a.c./ha,21%
same,MES h.e.,Setaria verticillata [2]; SETVE 14-20 DAA 90 g a.c./ha,41%
same,MES h.e.,Setaria verticillata [2]; SETVE 14-20 DAA 135 g a.c./ha,55%
same,MES h.e.,Setaria verticillata [2]; SETVE 24-31 DAA 45 g a.c./ha,31%
same,MES h.e.,Setaria verticillata [2]; SETVE 24-31 DAA 90 g a.c./ha,37%
same,MES h.e.,Setaria verticillata [2]; SETVE 24-31 DAA 135 g a.c./ha,58%
same,MES h.e.,Viola arvensis; VIOAR 14-20 DAA 45 g a.c./ha,84%
same,MES h.e.,Viola arvensis; VIOAR 14-20 DAA 90 g a.c./ha,95%
same,MES h.e.,Viola arvensis; VIOAR 14-20 DAA 135 g a.c./ha,98%
